Like-named read-outs stand apart in the source and are kept apart here.
Experiments:
Assay in all cases: Kinase panel
Assay type in all cases: biochemical
PKCTHETA = PKCTHETA (Homo sapiens, UniProt Q04759); details: read-out: residual enzyme activity
How it was run: (§1)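 Each listed kinase was assayed biochemically in the presence of 1 µM compound, and the calculated value is residual enzyme activity. Identification criterion was inhibition reaching 60% or more.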

ALK1/ACVRL1 = ALK1/ACVRL1 (Homo sapiens, UniProt P37023); details: ALK1/ACVRL1, 1 µM; read-out: residual enzyme activity
How it was run: as §1

TGFBR2 = TGFBR2 (Homo sapiens, UniProt P37173); details: TGFBR2, 1 µM; read-out: residual enzyme activity
How it was run: as §1

DYRK4 = DYRK4 (Homo sapiens, UniProt Q9NR20); details: DYRK4, 1 µM; read-out: residual enzyme activity
How it was run: as §1

SGK1 = SGK1 (Homo sapiens, UniProt O00141); details: SGK1, 1 µM; read-out: residual enzyme activity
How it was run: as §1

PAK1 = PAK1 (Homo sapiens, UniProt Q13153); details: PAK1, 1 µM; read-out: residual enzyme activity
How it was run: as §1

CDK6/CYCLIN D1 = CDK6/CYCLIN D1 (Homo sapiens, UniProt Q00534); details: CDK6/cyclin D1, 1 µM; read-out: residual enzyme activity
How it was run: as §1

IGFIR = IGFIR (Homo sapiens, UniProt P08069); details: read-out: residual enzyme activity
How it was run: as §1

ERK2/MAPK1 = ERK2/MAPK1 (Homo sapiens, UniProt P28482); details: ERK2/MAPK1, 1 µM; read-out: residual enzyme activity
How it was run: as §1

CDK18/CYCLIN Y (PCTK3) = CDK18/CYCLIN Y (PCTK3) (Homo sapiens, UniProt Q07002); details: read-out: residual enzyme activity
How it was run: as §1

MYO3A = MYO3A (Homo sapiens, UniProt Q8NEV4); details: read-out: residual enzyme activity
How it was run: as §1

CAMK2A = CAMK2A (Homo sapiens, UniProt Q9UQM7); details: read-out: residual enzyme activity
How it was run: as §1

MLK1/MAP3K9 = MLK1/MAP3K9 (Homo sapiens, UniProt P80192); details: MLK1/MAP3K9, 1 µM; read-out: residual enzyme activity
How it was run: as §1

ULK2 = ULK2 (Homo sapiens, UniProt Q8IYT8); details: ULK2, 1 µM; read-out: residual enzyme activity
How it was run: as §1

PKACB = PKACB (Homo sapiens, UniProt P22694); details: read-out: residual enzyme activity
How it was run: as §1

PKN3/PRK3 = PKN3/PRK3 (Homo sapiens, UniProt Q6P5Z2); details: PKN3/PRK3, 1 µM; read-out: residual enzyme activity
How it was run: as §1

CDK5/P25 = CDK5/P25 (Homo sapiens, UniProt Q00535); details: CDK5/P25, 1 µM; read-out: residual enzyme activity
How it was run: as §1

MYLK4 = MYLK4 (Homo sapiens, UniProt Q86YV6); details: MYLK4, 1 µM; read-out: residual enzyme activity
How it was run: as §1

MSSK1/STK23 = MSSK1/STK23 (Homo sapiens, UniProt Q9UPE1); details: MSSK1/STK23, 1 µM; read-out: residual enzyme activity
How it was run: as §1

STK39/STLK3 = STK39/STLK3 (Homo sapiens, UniProt Q9UEW8); details: STK39/STLK3, 1 µM; read-out: residual enzyme activity
How it was run: as §1

CDK17/CYCLIN Y (PCTK2) = CDK17/CYCLIN Y (PCTK2) (Homo sapiens, UniProt Q00537); details: read-out: residual enzyme activity
How it was run: as §1

CAMK2B = CAMK2B (Homo sapiens, UniProt Q13554); details: read-out: residual enzyme activity
How it was run: as §1

MRCKA/CDC42BPA = MRCKA/CDC42BPA (Homo sapiens, UniProt Q5VT25); details: read-out: residual enzyme activity
How it was run: as §1

MSK2/RPS6KA4 = MSK2/RPS6KA4 (Homo sapiens, UniProt O75676); details: MSK2/RPS6KA4, 1 µM; read-out: residual enzyme activity
How it was run: as §1

ERK7/MAPK15 = ERK7/MAPK15 (Homo sapiens, UniProt Q8TD08); details: ERK7/MAPK15, 1 µM; read-out: residual enzyme activity
How it was run: as §1

CDK2/CYCLIN A1 = CDK2/CYCLIN A1 (Homo sapiens, UniProt P24941); details: CDK2/Cyclin A1, 1 µM; read-out: residual enzyme activity
How it was run: as §1

MAK = MAK (Homo sapiens, UniProt P20794); details: read-out: residual enzyme activity
How it was run: as §1

ASK1/MAP3K5 = ASK1/MAP3K5 (Homo sapiens, UniProt Q99683); details: ASK1/MAP3K5, 1 µM; read-out: residual enzyme activity
How it was run: as §1

NEK5 = NEK5 (Homo sapiens, UniProt Q6P3R8); details: NEK5, 1 µM; read-out: residual enzyme activity
How it was run: as §1

MAPKAPKS/PRAK = MAPKAPKS/PRAK (Homo sapiens, UniProt Q8IW41); details: read-out: residual enzyme activity
How it was run: as §1

RSK3 = RSK3 (Homo sapiens, UniProt Q15349); details: RSK3, 1 µM; read-out: residual enzyme activity
How it was run: as §1

IKKE/IKBKE = IKKE/IKBKE (Homo sapiens, UniProt Q14164); details: read-out: residual enzyme activity
How it was run: as §1

NEK11 = NEK11 (Homo sapiens, UniProt Q8NG66); details: NEK11, 1 µM; read-out: residual enzyme activity
How it was run: as §1

Sequence of NEK11 (Q8NG66 whole entry, species assumed): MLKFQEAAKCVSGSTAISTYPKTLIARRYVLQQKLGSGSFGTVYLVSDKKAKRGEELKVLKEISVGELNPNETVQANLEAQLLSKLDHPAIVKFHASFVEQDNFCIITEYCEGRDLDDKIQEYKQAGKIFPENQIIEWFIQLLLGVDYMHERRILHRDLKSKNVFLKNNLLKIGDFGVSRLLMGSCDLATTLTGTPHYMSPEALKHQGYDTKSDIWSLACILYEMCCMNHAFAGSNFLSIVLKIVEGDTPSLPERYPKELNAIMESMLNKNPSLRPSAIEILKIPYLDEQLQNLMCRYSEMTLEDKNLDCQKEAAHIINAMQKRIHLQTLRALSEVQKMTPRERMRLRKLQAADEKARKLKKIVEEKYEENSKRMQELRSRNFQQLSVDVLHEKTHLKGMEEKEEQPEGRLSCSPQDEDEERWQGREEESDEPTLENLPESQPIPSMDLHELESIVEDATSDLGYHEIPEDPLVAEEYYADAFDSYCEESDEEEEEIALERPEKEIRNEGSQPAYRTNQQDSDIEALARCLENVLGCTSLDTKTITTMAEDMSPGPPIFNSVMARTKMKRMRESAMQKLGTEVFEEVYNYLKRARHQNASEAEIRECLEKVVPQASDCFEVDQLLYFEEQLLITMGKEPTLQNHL
Sequence of MRCKA/CDC42BPA (Q5VT25 whole entry): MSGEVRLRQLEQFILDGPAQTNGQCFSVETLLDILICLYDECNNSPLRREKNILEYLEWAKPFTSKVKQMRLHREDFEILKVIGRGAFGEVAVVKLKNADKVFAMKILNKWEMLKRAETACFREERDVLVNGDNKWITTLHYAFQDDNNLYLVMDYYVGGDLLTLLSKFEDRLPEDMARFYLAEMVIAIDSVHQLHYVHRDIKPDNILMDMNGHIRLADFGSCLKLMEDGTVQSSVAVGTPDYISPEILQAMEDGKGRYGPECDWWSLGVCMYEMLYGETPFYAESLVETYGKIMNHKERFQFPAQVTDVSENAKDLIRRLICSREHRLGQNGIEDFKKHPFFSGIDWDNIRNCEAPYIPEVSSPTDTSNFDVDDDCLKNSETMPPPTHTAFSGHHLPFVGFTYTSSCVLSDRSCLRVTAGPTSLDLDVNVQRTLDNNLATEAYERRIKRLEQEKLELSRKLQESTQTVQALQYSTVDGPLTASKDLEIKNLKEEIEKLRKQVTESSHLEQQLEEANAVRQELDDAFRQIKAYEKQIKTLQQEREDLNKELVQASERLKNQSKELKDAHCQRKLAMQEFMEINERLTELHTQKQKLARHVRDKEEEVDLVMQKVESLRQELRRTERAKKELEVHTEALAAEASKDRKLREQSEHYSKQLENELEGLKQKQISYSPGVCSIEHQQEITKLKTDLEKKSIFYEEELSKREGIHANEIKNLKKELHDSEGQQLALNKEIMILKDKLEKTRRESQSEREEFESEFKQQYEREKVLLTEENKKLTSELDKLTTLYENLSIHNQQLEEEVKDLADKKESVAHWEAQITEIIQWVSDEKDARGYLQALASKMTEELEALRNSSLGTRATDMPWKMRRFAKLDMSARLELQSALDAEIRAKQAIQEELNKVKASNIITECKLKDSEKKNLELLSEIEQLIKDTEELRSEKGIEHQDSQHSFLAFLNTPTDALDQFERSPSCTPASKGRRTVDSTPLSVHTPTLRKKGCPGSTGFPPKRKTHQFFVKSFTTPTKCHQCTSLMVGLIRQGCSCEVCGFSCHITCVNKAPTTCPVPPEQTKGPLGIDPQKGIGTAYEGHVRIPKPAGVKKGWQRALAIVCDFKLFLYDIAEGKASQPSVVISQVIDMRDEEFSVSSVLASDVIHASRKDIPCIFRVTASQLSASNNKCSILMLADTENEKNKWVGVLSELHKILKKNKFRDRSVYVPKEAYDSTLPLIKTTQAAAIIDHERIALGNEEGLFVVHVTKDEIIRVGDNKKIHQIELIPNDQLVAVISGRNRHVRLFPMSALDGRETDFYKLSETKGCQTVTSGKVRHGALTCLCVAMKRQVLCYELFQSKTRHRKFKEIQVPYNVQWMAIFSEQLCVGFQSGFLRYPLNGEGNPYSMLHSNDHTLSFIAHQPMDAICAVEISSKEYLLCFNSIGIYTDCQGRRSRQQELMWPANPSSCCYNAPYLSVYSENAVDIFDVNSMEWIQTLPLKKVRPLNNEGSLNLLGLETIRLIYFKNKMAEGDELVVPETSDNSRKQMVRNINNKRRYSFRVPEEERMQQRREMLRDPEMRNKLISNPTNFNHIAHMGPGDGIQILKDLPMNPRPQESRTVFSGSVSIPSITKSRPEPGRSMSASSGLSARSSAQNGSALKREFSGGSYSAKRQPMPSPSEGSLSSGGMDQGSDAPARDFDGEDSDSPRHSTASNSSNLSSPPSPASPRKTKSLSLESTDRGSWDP
Sequence of MYLK4 (Q86YV6 whole entry, species assumed): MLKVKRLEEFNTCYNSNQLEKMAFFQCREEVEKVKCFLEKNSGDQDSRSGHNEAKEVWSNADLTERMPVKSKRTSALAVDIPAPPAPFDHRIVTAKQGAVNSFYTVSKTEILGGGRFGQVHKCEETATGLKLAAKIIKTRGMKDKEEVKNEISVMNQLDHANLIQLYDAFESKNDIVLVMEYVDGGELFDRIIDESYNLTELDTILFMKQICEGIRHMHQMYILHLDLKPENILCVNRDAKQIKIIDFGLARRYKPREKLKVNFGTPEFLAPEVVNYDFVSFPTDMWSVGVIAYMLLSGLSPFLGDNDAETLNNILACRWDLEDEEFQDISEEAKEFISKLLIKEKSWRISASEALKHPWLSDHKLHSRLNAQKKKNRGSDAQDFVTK
Sequence of ULK2 (Q8IYT8 whole entry, species assumed): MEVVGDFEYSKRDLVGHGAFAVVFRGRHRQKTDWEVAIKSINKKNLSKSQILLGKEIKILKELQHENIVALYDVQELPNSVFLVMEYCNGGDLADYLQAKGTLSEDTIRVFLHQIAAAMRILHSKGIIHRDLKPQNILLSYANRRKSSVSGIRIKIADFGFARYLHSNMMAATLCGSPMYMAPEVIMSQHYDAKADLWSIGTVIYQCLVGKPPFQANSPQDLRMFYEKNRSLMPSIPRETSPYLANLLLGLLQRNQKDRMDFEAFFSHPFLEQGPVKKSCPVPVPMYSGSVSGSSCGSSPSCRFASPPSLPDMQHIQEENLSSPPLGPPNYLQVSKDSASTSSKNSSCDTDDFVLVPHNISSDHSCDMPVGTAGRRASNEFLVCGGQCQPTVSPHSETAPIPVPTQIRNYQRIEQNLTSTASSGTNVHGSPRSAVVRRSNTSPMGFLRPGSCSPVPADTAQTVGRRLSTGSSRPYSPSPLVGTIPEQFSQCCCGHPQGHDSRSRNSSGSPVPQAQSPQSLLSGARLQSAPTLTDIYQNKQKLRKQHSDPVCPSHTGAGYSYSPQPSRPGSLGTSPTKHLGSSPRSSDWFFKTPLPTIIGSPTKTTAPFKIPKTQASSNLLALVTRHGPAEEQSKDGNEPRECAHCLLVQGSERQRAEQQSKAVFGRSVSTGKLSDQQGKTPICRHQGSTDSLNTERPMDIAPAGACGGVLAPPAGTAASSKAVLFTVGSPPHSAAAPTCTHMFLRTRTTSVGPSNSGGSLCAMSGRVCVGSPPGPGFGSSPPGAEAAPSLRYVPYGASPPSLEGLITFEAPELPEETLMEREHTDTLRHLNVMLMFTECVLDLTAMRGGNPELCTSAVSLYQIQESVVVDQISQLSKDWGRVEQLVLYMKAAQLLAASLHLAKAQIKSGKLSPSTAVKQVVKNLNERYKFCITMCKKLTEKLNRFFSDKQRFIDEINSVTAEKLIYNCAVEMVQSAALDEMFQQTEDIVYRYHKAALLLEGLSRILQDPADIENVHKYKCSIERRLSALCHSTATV
Sequence of MSK2/RPS6KA4 (O75676 whole entry): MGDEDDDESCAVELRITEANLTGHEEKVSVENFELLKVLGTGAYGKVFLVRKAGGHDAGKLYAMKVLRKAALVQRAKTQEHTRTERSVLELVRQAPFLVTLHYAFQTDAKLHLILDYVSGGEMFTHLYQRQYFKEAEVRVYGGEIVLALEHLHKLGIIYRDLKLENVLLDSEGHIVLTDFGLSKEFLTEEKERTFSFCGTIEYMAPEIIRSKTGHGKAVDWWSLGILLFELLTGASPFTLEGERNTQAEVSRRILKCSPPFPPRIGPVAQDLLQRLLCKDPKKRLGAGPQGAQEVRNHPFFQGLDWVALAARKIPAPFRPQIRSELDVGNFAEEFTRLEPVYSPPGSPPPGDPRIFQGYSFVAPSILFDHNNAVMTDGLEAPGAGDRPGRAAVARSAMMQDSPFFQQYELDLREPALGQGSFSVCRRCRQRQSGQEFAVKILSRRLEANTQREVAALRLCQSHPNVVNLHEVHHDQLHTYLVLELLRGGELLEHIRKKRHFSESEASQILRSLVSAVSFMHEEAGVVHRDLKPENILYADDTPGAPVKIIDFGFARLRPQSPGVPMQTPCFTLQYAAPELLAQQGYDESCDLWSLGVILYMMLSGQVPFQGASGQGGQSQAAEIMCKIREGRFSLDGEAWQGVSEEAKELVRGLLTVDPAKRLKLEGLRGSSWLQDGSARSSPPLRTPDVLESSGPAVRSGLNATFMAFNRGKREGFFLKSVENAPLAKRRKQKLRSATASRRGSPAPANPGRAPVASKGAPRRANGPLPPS
Sequence of SGK1 (O00141 whole entry, species assumed): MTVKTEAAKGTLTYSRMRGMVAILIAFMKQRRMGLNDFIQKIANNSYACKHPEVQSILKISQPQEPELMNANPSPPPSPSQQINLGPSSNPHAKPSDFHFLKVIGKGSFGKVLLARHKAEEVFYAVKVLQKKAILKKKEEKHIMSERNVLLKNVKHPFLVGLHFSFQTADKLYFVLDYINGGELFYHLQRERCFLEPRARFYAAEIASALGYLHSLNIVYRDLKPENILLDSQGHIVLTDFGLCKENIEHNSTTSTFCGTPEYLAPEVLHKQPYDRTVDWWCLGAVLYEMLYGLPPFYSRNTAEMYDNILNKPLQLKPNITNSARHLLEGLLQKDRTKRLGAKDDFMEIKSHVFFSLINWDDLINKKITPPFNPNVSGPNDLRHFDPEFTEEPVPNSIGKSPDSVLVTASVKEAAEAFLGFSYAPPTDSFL

Cc1cn(-c2cc(C(=O)Nc3ccc(C)c(N4Cc5cnc(NC6CC6)nc5C5(CC5)C4=O)c3)cc(C(F)(F)F)c2)cn1 [Compound 8, N-(3-(2'-(cyclopropylamino)-7'-oxo-5'H-spiro[cyclopropane-1,8'-pyrido[4,3-d]pyrimidine]-6'(7'H)-yl)-4-methylphenyl)-3-(4-methyl-1H-imidazol-1-yl)-5-(trifluoromethyl)benzamide]
remaining activity at 1 µM (PKCTHETA): > 40% | remaining activity at 1 µM (ALK1/ACVRL1): > 40% | remaining activity at 1 µM (TGFBR2): > 40% | remaining activity at 1 µM (DYRK4): > 40% | remaining activity at 1 µM (SGK1): > 40% | remaining activity at 1 µM (PAK1): > 40% | remaining activity at 1 µM (CDK6/CYCLIN D1): > 40% | remaining activity at 1 µM (IGFIR): > 40% | remaining activity at 1 µM (ERK2/MAPK1): > 40% | remaining activity at 1 µM (CDK18/CYCLIN Y (PCTK3)): > 40% | remaining activity at 1 µM (MYO3A): > 40% | remaining activity at 1 µM (CAMK2A; CAMK2A): > 40% | remaining activity at 1 µM (MLK1/MAP3K9): > 40% | remaining activity at 1 µM (ULK2): > 40% | remaining activity at 1 µM (PKACB): > 40% | remaining activity at 1 µM (PKN3/PRK3): > 40% | remaining activity at 1 µM (CDK5/P25): > 40% | remaining activity at 1 µM (MYLK4): > 40% | remaining activity at 1 µM (MSSK1/STK23): > 40% | remaining activity at 1 µM (STK39/STLK3): > 40% | remaining activity at 1 µM (CDK17/CYCLIN Y (PCTK2)): > 40% | remaining activity at 1 µM (CAMK2B; CAMK2B): > 40% | remaining activity at 1 µM (MRCKA/CDC42BPA): > 40% | remaining activity at 1 µM (MSK2/RPS6KA4): > 40% | remaining activity at 1 µM (ERK7/MAPK15): > 40% | remaining activity at 1 µM (CDK2/CYCLIN A1): > 40% | remaining activity at 1 µM (MAK): > 40% | remaining activity at 1 µM (ASK1/MAP3K5): > 40% | remaining activity at 1 µM (NEK5): > 40% | remaining activity at 1 µM (MAPKAPKS/PRAK): > 40% | remaining activity at 1 µM (RSK3): > 40% | remaining activity at 1 µM (IKKE/IKBKE): > 40% | remaining activity at 1 µM (NEK11): > 40%

Cc1ccc(Nc2ncc3c(n2)C2(CC2)C(=O)N(c2cc(NC(=O)c4cccc(C(F)(F)F)c4)ccc2C)C3)cn1 [Compound 51, N-(4-methyl-3-(2'-((6-methylpyridin-3-yl)amino)-7'-oxo-5'H-spiro[cyclopropane-1,8'-pyrido[4,3-d]pyrimidine]-6'(7'H)-yl)phenyl)-3-(trifluoromethyl)benzamide]
remaining activity at 1 µM (PKCTHETA): > 40% | remaining activity at 1 µM (ALK1/ACVRL1): > 40% | remaining activity at 1 µM (TGFBR2): > 40% | remaining activity at 1 µM (DYRK4): > 40% | remaining activity at 1 µM (SGK1): > 40% | remaining activity at 1 µM (PAK1): > 40% | remaining activity at 1 µM (CDK6/CYCLIN D1): > 40% | remaining activity at 1 µM (IGFIR): > 40% | remaining activity at 1 µM (ERK2/MAPK1): > 40% | remaining activity at 1 µM (CDK18/CYCLIN Y (PCTK3)): > 40% | remaining activity at 1 µM (MYO3A): > 40% | remaining activity at 1 µM (CAMK2A; CAMK2a): > 40% | remaining activity at 1 µM (MLK1/MAP3K9): ≤ 40% | remaining activity at 1 µM (ULK2): > 40% | remaining activity at 1 µM (PKACB): > 40% | remaining activity at 1 µM (PKN3/PRK3): > 40% | remaining activity at 1 µM (CDK5/P25): > 40% | remaining activity at 1 µM (MYLK4): > 40% | remaining activity at 1 µM (MSSK1/STK23): > 40% | remaining activity at 1 µM (STK39/STLK3): > 40% | remaining activity at 1 µM (CDK17/CYCLIN Y (PCTK2)): > 40% | remaining activity at 1 µM (CAMK2B; CAMK2b): > 40% | remaining activity at 1 µM (MRCKA/CDC42BPA): > 40% | remaining activity at 1 µM (MSK2/RPS6KA4): > 40% | remaining activity at 1 µM (ERK7/MAPK15): > 40% | remaining activity at 1 µM (CDK2/CYCLIN A1): > 40% | remaining activity at 1 µM (MAK): > 40% | remaining activity at 1 µM (ASK1/MAP3K5): > 40% | remaining activity at 1 µM (NEK5): > 40% | remaining activity at 1 µM (MAPKAPKS/PRAK): > 40% | remaining activity at 1 µM (RSK3): > 40% | remaining activity at 1 µM (IKKE/IKBKE): > 40% | remaining activity at 1 µM (NEK11): ≤ 40%
